Earlier results on 4 molecules are cited in US12637369B2, “Method for selectively removing perfluorinated compounds with electrooxidation” (SK hynix Inc., priority 2021, dated 2026).

Experiment in data set [1]: not given
This is another data set of the same source.

SMILES strings stand for the structures. Converted amounts (≈) assume the structure as drawn.

As to `O=C(O)C(F)(F)C(F)(F)C(F)(F)C(F)(F)C(F)(F)C(F)(F)C(F)(F)F` [PFOA, Perfluorooctanoic acid], the Solubility in water was 3400 µg/mL (≈ 8.21 mM).

`O=S(=O)(O)C(F)(F)C(F)(F)C(F)(F)C(F)(F)C(F)(F)C(F)(F)C(F)(F)C(F)(F)F` [PFOS, Perfluorooctane sulfonic acid]: the Solubility in water was 570 µg/mL (≈ 1.14 mM). Further, in data set [1], the pKa was −3.27.

On to `O=C(O)C(F)(F)C(F)(F)C(F)(F)C(F)(F)C(F)(F)C(F)(F)C(F)(F)C(F)(F)F` [PFNA, Perfluorononanoic acid], for which the Solubility in water was 9500 µg/mL (≈ 20.5 mM). Besides, the pKa in data set [1] was 2-3.

With `O=S(=O)(O)C(F)(F)C(F)(F)C(F)(F)C(F)(F)F` [PFBS, Perfluorobutane sulfonic acid], the Solubility in water entry is listed as “Very high”. In data set [1], the pKa is −3.94.
